3 molecules from patent publication US20060088897A1, “Modulators” (priority 2003, published 2006) can be followed below.

What all share (format): cell-based
For assay [1], the system named is N1E-115 cells. Description: Cell guidance assay at Laminin/CSPG boundary (axonal guidance). As to conditions: for neurite morphology: serum starved cells, FIG. 9A. The protocol: Effect of PAK peptides on neurite morphology. Cells are exposed to control peptide, αP 1*, αP2, βP2, or γP2 and neurite morphology assessed. (B) Cells are plated on coverslips that been treated to create a Laminin/CSGP boundary. After 6 h cells are examined for their ability to project neurites that crossed the substrate boundary. Cells exposed to bioporter coated peptides, (a) αP2, (b) βP2, and (c) γP2. […] Results are means+/−SEM (n=161-263). (C) Cells are exposed to peptides and after 6 h are scored for their ability to cross boundary from Laminin to CSPG.
The coverslips are washed and sterilised and then coated in one of the following ways.
A second layer of laminin is applied as a drop mixed with 1 μg/ml TRITC label. Coverslips are left for 1 hour at RT and then rinsed twice with sterile water before allowing to dry before use. (iii) Attractive/repulsive boundary. Slides are coated with CSPG 5 μg/ml for 1 hour at 37° C. in a humid chamber then rinsed once in sterile H2O and allowed to air dry before the drop of laminin at 10 μg/ml is applied to the centre of the coverslip and left for 1 hour at RT before rinsing twice in sterile water and allowing to dry before use. This coating is also done in reverse with the laminin applied first and then the tenascin or the CSPG applied second.
The cells are then seeded onto the prepared coverslips at 2×10^5 cells in 1 ml in a 35 mm petri dish, in DMEM, 10% FCS, and 1% AB/AM. Cells are allowed to attach overnight. The media is then removed and the coverslips rinsed in serum free media and incubated overnight (18 h) in serum free media. After the starvation the cells are fixed and stained to show the morphology of the cells at the boundary. Only neurites expressing neurofilamant are scored.
After 5 minutes, the cells are washed once with serum free DMEM media and then 1 ml of serum free DMEM is added to the tube containing the peptide and BioPorter mix it is vortexed gently before being added to the cells. The cells are incubated for 4 hours at 37° C. After the 4 hour incubation the cells are then incubated for a further 2 hours in 5% FCS DMEM or for cells undergoing a substrate guidance assay the 2 hour incubation is in serum free DMEM. The cells are fixed and stained.
Neurofilament positive neurites are scored for how they respond to Laminin/CSPG boundary. […] However, neurites do have distinct morphologies (FIG. 9A). Thus α, β and γ PAK are not essential for neurite outgrowth.

In assay [2] the test system is N1E-115 cells. Description: Microinjection of peptides into partially serum starved N1E-115 cells, phalloidin staining and confocal microscopy of cell morphology. As to conditions: for effect on formation of lamellipodia, filopodia or neurites concluded from microinjection: FIG. 8A; for cell morphology after peptide microinjection: peptide injected at 10 μg/ml, cells serum starved 2-4 h, FIG. 7A, 8A. Here is the method:
Cells are starved for 2-3 h and then either injected with peptides (10 μg/ml) or exposed to peptides with bioporter reagent. Cells are incubated for a further 2 h before being stained with phalloiden and examined by confocal microscopy (as described in the materials and methods section). (A) The upper cells is injected with αP1 (a), or all cells injected with αP1*(b), or exposed to αP2 with bioporter reagent (c). […] Results are expressed as means+/−SEM of 3 experiments (n=333-426 cells). […] (D) Cells are exposed to bioporter reagent with αP2 and after 6 h double stained with αPAK and vinculin antibodies; (a) Vinculin/αPAK, (b) Vinculin and (c) αPAK. Bar=10 μM. Control bars are with IgG with bioporter/microinjection.
(§1) Cells are starved for 2-3 h and then injected with peptides. Cells are then incubated for 2 h before being stained with phalloiden and examined by confocal microscopy (as described in the materials and methods section). (A) Cells are injected with IgG (a), with αP2 (b), with βP2 (c) and γP2 (d). Bar=10 μM. (B) Cells are exposed to bioporter with peptides and presence of neurites, pronounced filopodia and pronounced lamellipodia/ruffles scored (definitions as in FIG. 7). (C) Cells are either exposed to bioporter reagent coated peptides (αP2 and βP2) and then IGF or serum starvation used to activate cells. For γP2 cells are injected with peptide and stimulated with serum. Filopodia and lamellipodia are scored by using time-lapse phase contrast microscopy. +/−SEM of 3 experiments (n=900). Control peptide is taken from the kinase domain and common to the three PAK isoforms.
Cells are plated out at 1.0×10^5 cells in 1 ml in a 35 mm dish containing 2 laminin coated coverslips. The coverslips are first marked with a grid using a fine permanent marker and then coated with laminin and incubated overnight in DMEM, 10% FCS, 1% AB/AM. The media is replaced with serum free media (DMEM, 1% AB/AM) and the cells starved for 1 hour so that they flattened and are easier to inject. The peptides are injected at 10 μg/ml in PBS, Rat IgG at 1 mg/ml is added to act as a marker for injected cells.
The cells are injected using an Eppendorf microinjection apparatus on an Axioplan inverted microscope equipped with a heated stage maintained at 37° C. and a 5% CO2 chamber. Humidity is maintained by a dish of sterile water inside the CO2 chamber. Cells in a grid square are injected and positive injection checked visually at the time of injection or after fixation and staining for the injected marker. After injection the cells are returned to the incubator for a further 2 hours. Giving a total time without serum of 4 hours.
The only difference between these two peptides being that the latter peptide is phosphorylated on serine and this modification prevents it from binding Nck (Zhao et al., 1998). To investigate the effects of peptides we first serum starve the cells for 2-4 h to activate Cdc42Hs and Rac.

The subject of assay [3] is N1E-115 cells. Description: Phase contrast time-lapse analysis of filopodia and lamellipodia formation in a gradient of IGF. Conditions: followed for 60 min; FIG. 8C. Here is the method:
as §1
Time lapse microscopy is carried out on a heated stage (37° C.) in an atmosphere of humidified air and 5% CO2. Cells are video recorded using a, Axiovert 135 microscope, Palmix TM-6CN video camera and Sony-u-matic V0-5800 PS video recorder. Individual images are captured using Bio-rad COMOS software and manipulated with Adobe photoshop. Confocal microscopy is carried out using a LSM 410 Zeiss scanning microscope with 3 single line lasers at 488 nM (argon), 543 nM and 633 nM, (HeNe). […]

For assay [4], the system named is N1E-115 cells. In words: Axonal guidance towards IGF (preliminary experiments). Conditions: unpublished data. An excerpt: In preliminary experiments we have also examined the effect of the PAK peptides on axonal guidance towards IGF in N1E-115 cells.
For another assay, the system named is Bac1 macrophages. In words: Time lapse / microinjection analysis of Bac1 macrophage morphology (CSF, LPA gradients, C3 toxin). The protocol: (A) Bac1 cells are grown (24 h) in four different ways and then stained with phalloidin to visualise F-actin. With serum alone (a), without CSF/serum (b), with CSF/serum (c), and with CSF alone (d). (B) Cells are starved of CSF for 24 h and then exposed to gradient of CSF (1.32 nM) through a needle. A time lapse sequence is shown over 30 min. (C) Bac1 macrophages are CSF/serum starved for 24 h and then exposed to a gradient of LPA through a needle. A time lapse sequence is shown over 10 min. (D) Bac1 macrophages starved for serum alone and then exposed to a gradient of CSF through a needle and LPA added to the medium. CSF is added in panel (b) followed by LPA. Panels c-f show process retraction on the side of the cell that is not protected by CSF. Arrows in (B) show the formation of filopodia. Arrows in (C) show process retraction. Bar=10 μM. […]
Proteins purified from E. coli and C3 toxin are microinjected in 50 MM Tris pH 7.5, 50 mM NaCl, 5 mM MgCl2 using an Eppendorf microinjector and Axiovert microscope. Successful injection is determined visually at the time of injection and by use of IgG. […]
Time lapse microscopy is carried out on a heated stage (37° C.) in an atmosphere of humidified air and 5% CO2. Cells are video recorded using a, Axiovert 135 microscope, Palmix TM-6CN video camera and Sony-u-matic V0-5800 PS video recorder. […]

“Also recorded” adds a separate entry of the source.

With “SDNGELEDKPPAPPVRMSST [γP2, peptide derived from γPAK]”, the “ability to detect the Laminin/CSPG boundary” value in the assay with N1E-115 cells [1] (FIG. 9C) is “do not to recognize the boundary”. The “neurites crossing over the Laminin/CSPG boundary” value in the assay on N1E-115 cells [1] (control approx. 10%, FIG. 9C) was 60-70%. In addition, the neurite morphology entry in the assay on N1E-115 cells [1] was “smooth and flattened with fan shaped growth cones; also recorded: flattened growth cones and very few filopodia”. Moreover, in the assay on N1E-115 cells [2], the “effect on formation of lamellipodia, filopodia or neurites concluded from microinjection” value is reported as “blocks filopodia formation” and the “cell morphology after peptide microinjection” value is recorded as “large fan-shaped lamellipodia with no filopodia”. The “formation of filopodia in response to IGF gradient” value in the assay with N1E-115 cells [3] is on record as “inhibit”.

“SDSLDNEEKPPAPPLRMNSN [βP2, peptide derived from βPAK]”: in the assay on N1E-115 cells [4], the “decision making process of moving towards IGF” value was “does slow down the decision making process” and the “effect on axonal guidance towards IGF” value is reported as “do not affect guidance”. In the assay on N1E-115 cells [1] (FIG. 9C), the “ability to detect the Laminin/CSPG boundary” value is given as “not affected”. In addition, in the assay on N1E-115 cells [1], the neurite morphology result is “branched and spiky with lamellipodia and ruffles inhibited”. In the assay with N1E-115 cells [2], the “effect on formation of lamellipodia, filopodia or neurites concluded from microinjection” value was “blocks lamellipodia formation” and the “cell morphology after peptide microinjection” value is given as “numerous filopodia along a newly formed leading edge with no lamellipodia”. The “formation of lamellipodia in response to IGF gradient” value in the assay with N1E-115 cells [3] is “inhibit”.

B1: CSF: growth factor for Bac1 macrophages; activates Cdc42Hs and Rac1 (protein, UniProt P07141 33-552, looked up)
Macrophage colony-stimulating …: KEVSEHCSHMIGNGHLKVLQQLIDSQMETSCQIAFEFVDQEQLDDPVCYLKKAFFLVQDIIDETMRFKDNTPNANATERLQELSNNLNSCFTKDYEEQNKACVRTFHETPLQLLEKIKNFFNETKNLLEKDWNIFTKNCNNSFAKCSSRDVVTKPDCNCLYPKATPSSDPASASPHQPPAPSMAPLAGLAWDDSQRTEGSSLLPSELPLRIEDPGSAKQRPPRSTCQTLESTEQPNHGDRLTEDSQPHPSAGGPVPGVEDILESSLGTNWVLEEASGEASEGFLTQEAKFSPSTPVGGSIQAETDRPRALSASPFPKSTEDQKPVDITDRPLTEVNPMRPIGQTQNNTPEKTDGTSTLREDHQEPGSPHIATPNPQRVSNSATPVAQLLLPKSHSWGIVLPLGELEGKRSTRDRRSPAELEGGSASEGAARPVARFNSIPLTDTGHVEQHEGSSDPQIPESVFHLLVPGIILVLLTVGGLLFYKWKWRSHRDPQTLDSSVGRPEDSSLTQDEDRQVELPV
As to B1, in the assay with Bac1 macrophages (CSF via needle, LPA added to medium after 1.5 min, FIG. 2D), the “protection from LPA mediated process collapse” value was “can protect the process nearest to the source of CSF from LPA mediated process collapse”. Further, in the assay with Bac1 macrophages (gradient through a needle, FIG. 2B, 2C), the “morphological response of Bac1 cells to a gradient of the factor” value was “induces the formation of filopodia and lamellipodia”.
